Results on 11 compounds are retold here after patent publication US20260297060A1, “COMPOUNDS FOR THE DEGRADATION OF MUTANT BRAF” (C4 THERAPEUTICS, INC., priority 2023, published 2026).

As a reminder, the GI50 is the concentration that inhibits growth by half. Read a high GI50 as less potent growth inhibition.

The target of experiment [1] is T1, human bile salt export pump (BSEP) efflux transporter (Homo sapiens, UniProt O95342).
T1 construct: purchased SOLVO Biotechnology Charles River Laboratories, Szeged, Hungary; host or cells: HEK293 (inside out membrane vesicles)
Nature of the experiment: BSEP Vesicular Transport Inhibition Assay (IC50 determination). The following applies: human BSEP (HEK293) vesicles, taurocholate 0.2 μM, 4 mM Mg-ATP, 10 concentrations, 1 replicate. Type of experiment: biochemical. On the procedure: The vesicular transport (VT) assays were performed using inside out membrane vesicles derived from HEK293 cells expressing the specified human bile salt export pump (BSEP) efflux transporter. The membrane vesicles were procured from SOLVO Biotechnology Charles River Laboratories, Szeged, Hungary.
The principle of the assay relies on measuring the accumulation of substrate into inside out vesicles containing the efflux transporter. By utilizing inside out vesicles, the ATP-dependent transport of substrate is directed into the vesicular lumen, where low permeability compounds are then essentially trapped.
For the IC50 screen inhibition assay, 10 concentrations of each compound were tested in the presence of ATP (active transport) in 1 replicate.
The solvent control (DMSO) was tested in the presence of ATP (active transport) and in the presence of AMP (background) in 8 replicates.
Vesicular transport inhibition assays were performed using the specific parameters for each transporter inhibition assay described in Table 53.
Table 54 specifies treatment groups and concentration of compounds, that were examined in the vesicular transport inhibition assay. Detailed data of IC50 screen inhibition assay are shown in Table 55 and detailed data of 1 concentration inhibition assay are shown in Table 56.
The vesicular transport inhibition assay was performed with 4 mM Mg-ATP. For the IC50 screen inhibition assay, 10 concentrations of each compound were tested in the presence of ATP in 1 replicate. For the 1 concentration inhibition assay, 1 concentration of each compound was tested in the presence of ATP (active transport) in 2 replicates. The solvent control (DMSO) was tested in the presence of 4 mM Mg-ATP (active transport) and in the presence of 4 mM AMP (background) in 8 replicates.
The BSEP membrane vesicle suspension was mixed with the ice-cold transport buffer, then the taurocholate probe substrate solution was added (Reaction mixture, 50 μL per well). The compounds were added to the reaction mixture at 1.5-times the final assay concentration. […].
Reaction mixtures and the start reagent (Mg-ATP or AMP in transport buffer) were pre-warmed separately for 15 minutes to reach the incubation temperature of 37° C. […]
The reaction was initiated by the addition of the start reagent (25 μL) to the reaction mixture (diluting the reaction mixture to the final concentration). […] After the 5-minute incubation at 37° C., the reaction was stopped by the addition of 250 μL ice-cold washing mix to each well. […]
The samples were then be transferred to a filter plate and washed with 200 μL cold washing mix5-times to remove any free compounds or taurocholate probe substrate. The amount of taurocholate probe substrate inside the filtered vesicles were determined by liquid scintillation counting. […]

The next experiment concerns A375-NRAS^Q61K cells. Nature of the experiment: CTGlo Cell Viability Assay, A375-NRAS^Q61K (A375.11) cells, 96 hours. Type of experiment: cell-based, human. The following applies: Homo sapiens, 96 h, A375.11 (A375-NRAS^Q61K) cells; for Emax: lowest % viability achieved. Summed up: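 Viability as CellTiter-Glo ATP luminescence after 96 h compound exposure at 37 °C; A375.11 (BRAF V600E/NRAS Q61K) cells at 250/well, top final concentration 10 μM in half-log steps. Signal was background-corrected and set relative to DMSO controls. A 4-parameter logistic fit gave GI50 (50% crossing) and Emax.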

T1 sequence (O95342 whole entry): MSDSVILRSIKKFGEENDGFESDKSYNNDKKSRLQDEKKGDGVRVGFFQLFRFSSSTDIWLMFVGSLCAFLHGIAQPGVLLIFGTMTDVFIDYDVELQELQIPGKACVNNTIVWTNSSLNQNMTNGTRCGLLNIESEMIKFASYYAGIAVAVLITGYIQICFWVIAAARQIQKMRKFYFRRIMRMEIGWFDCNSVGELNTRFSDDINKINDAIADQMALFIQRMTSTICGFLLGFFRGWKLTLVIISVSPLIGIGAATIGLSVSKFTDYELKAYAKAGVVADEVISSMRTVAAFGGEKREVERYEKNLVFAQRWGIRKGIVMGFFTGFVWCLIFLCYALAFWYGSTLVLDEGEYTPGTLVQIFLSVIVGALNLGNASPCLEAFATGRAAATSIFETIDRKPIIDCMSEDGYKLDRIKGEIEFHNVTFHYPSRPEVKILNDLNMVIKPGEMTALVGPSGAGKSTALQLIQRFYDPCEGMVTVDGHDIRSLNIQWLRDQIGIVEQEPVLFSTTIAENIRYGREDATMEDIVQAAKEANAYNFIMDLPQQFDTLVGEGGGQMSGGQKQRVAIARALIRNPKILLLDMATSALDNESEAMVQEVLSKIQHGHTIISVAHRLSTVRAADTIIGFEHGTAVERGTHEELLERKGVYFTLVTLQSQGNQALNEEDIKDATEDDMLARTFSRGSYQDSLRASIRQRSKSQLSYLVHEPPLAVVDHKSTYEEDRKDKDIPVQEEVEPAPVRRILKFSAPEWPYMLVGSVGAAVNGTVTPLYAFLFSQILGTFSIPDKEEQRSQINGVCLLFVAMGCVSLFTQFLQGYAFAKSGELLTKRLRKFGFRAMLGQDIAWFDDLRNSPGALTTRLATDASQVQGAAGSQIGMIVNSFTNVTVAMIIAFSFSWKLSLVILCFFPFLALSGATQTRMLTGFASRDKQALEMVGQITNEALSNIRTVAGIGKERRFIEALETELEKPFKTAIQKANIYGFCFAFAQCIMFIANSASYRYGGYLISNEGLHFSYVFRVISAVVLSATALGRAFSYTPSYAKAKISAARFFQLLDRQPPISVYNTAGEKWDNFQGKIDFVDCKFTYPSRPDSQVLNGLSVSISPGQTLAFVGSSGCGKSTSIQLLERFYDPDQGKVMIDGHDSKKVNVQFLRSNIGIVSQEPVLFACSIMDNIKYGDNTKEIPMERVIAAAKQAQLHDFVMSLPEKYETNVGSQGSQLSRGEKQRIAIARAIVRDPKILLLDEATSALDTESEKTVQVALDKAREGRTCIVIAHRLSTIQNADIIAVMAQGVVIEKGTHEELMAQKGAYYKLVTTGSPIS

`Cn1nc(N2CCC(=O)NC2=O)c2cc(F)c(N3CC4(CC(N5CCC6(CC5)C[C@@H](n5cnc7ccc(Oc8c(F)ccc(NS(=O)(=O)N9CC[C@@H](F)C9)c8C#N)cc7c5=O)CO6)C4)C3)cc21` [Compound 133, (3R)-N-[2-cyano-3-[3-[(3R)-8-[2-[3-(2,4-dioxohexahydropyrimidin-1-yl)-5-fluoro-1-methyl-indazol-6-yl]-2-azaspiro[3.3]heptan-6-yl]-1-oxa-8-azaspiro[4.5]decan-3-yl]-4-oxo-quinazolin-6-yl]oxy-4-fluoro-phenyl]-3-fluoro-pyrrolidine-1-sulfonamide]: the BSEP Inhibition/IC50 in experiment [1] came to 6.22 µM. Also, in the experiment with A375-NRAS^Q61K cells, the concentration for 50% growth inhibition (GI50) is 1 to 10 µM and the Emax was less than 50%.
As for `CCN(C)S(=O)(=O)Nc1ccc(F)c(Oc2ccc3ncn(C4CC5(CCN(C6CC7(C6)CN(c6cc8c(cc6F)c(N6CCC(=O)NC6=O)nn8C)C7)CC5)C4)c(=O)c3c2)c1C#N` (stereo not drawn) [Compound 141, 6-[2-cyano-3-[[ethyl(methyl)sulfamoyl]amino]-6-fluoro-phenoxy]-3-[7-[2-[3-(2,4-dioxohexahydropyrimidin-1-yl)-5-fluoro-1-methyl-indazol-6-yl]-2-azaspiro[3.3]heptan-6-yl]-7-azaspiro[3.5]nonan-2-yl]-4-oxo-quinazoline], in experiment [1] (in nM), the “BSEP Inhibition/IC50” value was more than 40000. In the experiment on A375-NRAS^Q61K cells, this compound gave a GI50 of less than 1 µM and an Emax of 50 to 90%.
In the case of `CO[C@@H]1CCN(S(=O)(=O)Nc2ccc(F)c(Oc3ccc4ncn([C@H]5COC6(CCN(C7CC8(C7)CN(c7cc9c(cc7F)c(N7CCC(=O)NC7=O)nn9C)C8)CC6)C5)c(=O)c4c3)c2C#N)C1` [Compound 144, (3R)-N-[2-cyano-3-[3-[(3R)-8-[2-[3-(2,4-dioxohexahydropyrimidin-1-yl)-5-fluoro-1-methyl-indazol-6-yl]-2-azaspiro[3.3]heptan-6-yl]-1-oxa-8-azaspiro[4.5]decan-3-yl]-4-oxo-quinazolin-6-yl]oxy-4-fluoro-phenyl]-3-methoxy-pyrrolidine-1-sulfonamide], the BSEP Inhibition/IC50 in experiment [1] worked out at 7.94 µM. Moreover, in the experiment with A375-NRAS^Q61K cells, the GI50 was less than 1 µM and the Emax is less than 50%.
On to `CCN(C)S(=O)(=O)Nc1ccc(F)c(Oc2ccc3ncn(C4CC5(CCN(C6CCN(c7cc8c(cc7F)c(N7CCC(=O)NC7=O)nn8C)CC6)CC5)C4)c(=O)c3c2)c1C#N` [Compound 156, 6-[2-cyano-3-[[ethyl(methyl)sulfamoyl]amino]-6-fluoro-phenoxy]-3-[7-[1-[3-(2,4-dioxohexahydropyrimidin-1-yl)-5-fluoro-1-methyl-indazol-6-yl]-4-piperidyl]-7-azaspiro[3.5]nonan-2-yl]-4-oxo-quinazoline], for which the “BSEP Inhibition/IC50” value in experiment [1] (in nM) is given as more than 40000. For the same compound, in the experiment on A375-NRAS^Q61K cells, the GI50 is less than 1 µM and the Emax lay within 50 to 90%.
Consider `CO[C@H]1CCN(S(=O)(=O)Nc2ccc(F)c(Oc3ccc4ncn([C@H]5COC6(CCN(C7CC8(C7)CN(c7cc9c(cc7F)c(N7CCC(=O)NC7=O)nn9C)C8)CC6)C5)c(=O)c4c3)c2C#N)C1` [Compound 157, (3S)-N-[2-cyano-3-[3-[(3R)-8-[2-[3-(2,4-dioxohexahydropyrimidin-1-yl)-5-fluoro-1-methyl-indazol-6-yl]-2-azaspiro[3.3]heptan-6-yl]-1-oxa-8-azaspiro[4.5]decan-3-yl]-4-oxo-quinazolin-6-yl]oxy-4-fluoro-phenyl]-3-methoxy-pyrrolidine-1-sulfonamide], for which, in experiment [1], the BSEP Inhibition/IC50 is 8.83 µM. In the experiment with A375-NRAS^Q61K cells, this compound had a GI50 of less than 1 µM and an Emax of 50 to 90%.
Regarding `CCN(C)S(=O)(=O)Nc1ccc(F)c(Oc2ccc3ncc([C@H]4COC5(CCN(C6CC7(C6)CN(c6cc8c(cc6F)c(N6CCC(=O)NC6=O)nn8C)C7)CC5)C4)nc3c2)c1C#N` [Compound 158, (3S)-3-[7-[2-cyano-3-[[ethyl(methyl)sulfamoyl]amino]-6-fluoro-phenoxy]quinoxalin-2-yl]-8-[2-[3-(2,4-dioxohexahydropyrimidin-1-yl)-5-fluoro-1-methyl-indazol-6-yl]-2-azaspiro[3.3]heptan-6-yl]-1-oxa-8-azaspiro[4.5]decane], the BSEP Inhibition/IC50 in experiment [1] was determined as 7.53 µM. In the experiment with A375-NRAS^Q61K cells, this compound showed a GI50 of less than 1 µM and an Emax of 50 to 90%.
For `CCN(C)S(=O)(=O)Nc1ccc(F)c(Oc2ccc3ncc(C4CC5(CCN(C6CC7(C6)CN(c6cc8c(cc6F)c(N6CCC(=O)NC6=O)nn8C)C7)CC5)C4)nc3c2)c1C#N` (stereo not drawn) [Compound 177, 7-[2-cyano-3-[[ethyl(methyl)sulfamoyl]amino]-6-fluoro-phenoxy]-2-[7-[2-[3-(2,4-dioxohexahydropyrimidin-1-yl)-5-fluoro-1-methyl-indazol-6-yl]-2-azaspiro[3.3]heptan-6-yl]-7-azaspiro[3.5]nonan-2-yl]quinoxaline], in experiment [1], the BSEP Inhibition/IC50 is 7.36 µM. In the experiment on A375-NRAS^Q61K cells, this compound registered a GI50 of less than 1 µM and an Emax of 50 to 90%.
For `CCN(C)S(=O)(=O)Nc1ccc(F)c(Oc2ccc3ncn(C4CC5(CCN(C6CC7(CCN(c8cc9c(cc8F)c(N8CCC(=O)NC8=O)nn9C)CC7)C6)CC5)C4)c(=O)c3c2)c1C#N` (stereo not drawn) [Compound 198, 6-[2-cyano-3-[[ethyl(methyl)sulfamoyl]amino]-6-fluoro-phenoxy]-3-[7-[7-[3-(2,4-dioxohexahydropyrimidin-1-yl)-5-fluoro-1-methyl-indazol-6-yl]-7-azaspiro[3.5]nonan-2-yl]-7-azaspiro[3.5]nonan-2-yl]-4-oxo-quinazoline], the “BSEP Inhibition/IC50” value in experiment [1] (in nM) was 15250. In the experiment on A375-NRAS^Q61K cells, this compound had a GI50 of 1 to 10 µM and an Emax of less than 50%.
Regarding `COC1CN(S(=O)(=O)Nc2ccc(F)c(Oc3ccc4ncn([C@H]5COC6(CCN(C7CC8(C7)CN(c7cc9c(cc7F)c(N7CCC(=O)NC7=O)nn9C)C8)CC6)C5)c(=O)c4c3)c2C#N)C1` [Compound 246, N-[2-cyano-3-[3-[(3R)-8-[2-[3-(2,4-dioxohexahydropyrimidin-1-yl)-5-fluoro-1-methyl-indazol-6-yl]-2-azaspiro[3.3]heptan-6-yl]-1-oxa-8-azaspiro[4.5]decan-3-yl]-4-oxo-quinazolin-6-yl]oxy-4-fluoro-phenyl]-3-methoxy-azetidine-1-sulfonamide], in experiment [1], the BSEP Inhibition/IC50 is 8.79 µM. In the experiment with A375-NRAS^Q61K cells, this compound yielded a GI50 of less than 1 µM and an Emax of less than 50%.
The corresponding values for `Cn1nc(N2CCC(=O)NC2=O)c2cc(F)c(N3CC4(CC(N5CCC6(CC5)CC(n5cnc7ccc(Oc8c(F)ccc(NS(=O)(=O)C9CCCC9)c8C#N)cc7c5=O)C6)C4)C3)cc21` [Compound 250, N-[2-cyano-3-[3-[7-[2-[3-(2,4-dioxohexahydropyrimidin-1-yl)-5-fluoro-1-methyl-indazol-6-yl]-2-azaspiro[3.3]heptan-6-yl]-7-azaspiro[3.5]nonan-2-yl]-4-oxo-quinazolin-6-yl]oxy-4-fluoro-phenyl]cyclopentanesulfonamide] are 8.45 µM, less than 1 µM and less than 50%.
In the same order, the values of `Cn1nc(N2CCC(=O)NC2=O)c2cc(F)c(N3CC4(CC(N5CCC6(CC5)C[C@@H](n5cnc7ccc(Oc8c(F)ccc(NS(=O)(=O)N9CC%10(CCC%10)C9)c8C#N)cc7c5=O)CO6)C4)C3)cc21` [Compound 254, N-[2-cyano-3-[3-[(3R)-8-[2-[3-(2,4-dioxohexahydropyrimidin-1-yl)-5-fluoro-1-methyl-indazol-6-yl]-2-azaspiro[3.3]heptan-6-yl]-1-oxa-8-azaspiro[4.5]decan-3-yl]-4-oxo-quinazolin-6-yl]oxy-4-fluoro-phenyl]-2-azaspiro[3.3]heptane-2-sulfonamide] are 1.74 µM, less than 1 µM and less than 50%.
